Assay results: BindingDB's records for doi:10.1016/j.bmc.2009.11.019 (Istituto Di Ricerche Chimiche E Biochimiche G. Ronzoni, 2010)

Assay: Inhibition of integrin alphaV receptor-mediated adhesion of human PC3 cells to vitronectin after 1 hr by toluidine blue staining

Compound | IC50 [µM]
NC(N)=NCCC[C@@H]1NC(=O)C(c2ccc(CNC(=O)COCCOCCOCC(=O)O)cc2)NC(=O)[C@@H](Cc2ccccc2)NC(=O)[C@H](CC(=O)O)NC(=O)CNC1=O (stereo partly drawn) [1-(4-((5S,11S,14R)-14-benzyl-11-(carboxymethyl)-5-(3-guanidinopropyl)-3,6,9,12,15-pentaoxo-1,4,7,10,13-pentaazacyclopentadecan-2-yl)phenyl)-3-oxo-5,8,11-trioxa-2-azatridecan-13-oic acid] | 18.8
NNC(=O)COCCOCCOCC(=O)NCc1ccc([C@@H]2NC(=O)[C@@H](Cc3ccccc3)NC(=O)[C@H](CC(=O)O)NC(=O)CNC(=O)[C@H](CCCN=C(N)N)NC2=O)cc1 [2-((2S,5R,8S,11S)-5-benzyl-11-(3-guanidinopropyl)-8-(4-(13-hydrazinyl-3,13-dioxo-5,8,11-trioxa-2-azatridecyl)phenyl)-3,6,9,12,15-pentaoxo-1,4,7,10,13-pentaazacyclopentadecan-2-yl)acetic acid] | 15.6
CC[C@@]1(O)C(=O)OCc2c1cc1n(c2=O)Cc2c-1nc1ccccc1c2CCC=NNC(=O)COCCOCCOCC(=O)NCc1ccc(C[C@@H]2NC(=O)[C@@H](Cc3ccccc3)NC(=O)[C@H](CC(=O)O)NC(=O)CNC(=O)[C@H](CCCN=C(N)N)NC2=O)cc1 [2-[(2S,5R,8S,11S)-5-benzyl-11-(3-carbamimidamidopropyl)-8-({4-[(2-{2-[2-({N'-[(1E)-3-[(19S)-19-ethyl-19-hydroxy-14,18-dioxo-17-oxa-3,13-diazapentacyclo[11.8.0.0^{2,11}.0^{4,9}.0^{15,20}]henicosa-1(21),2,4,6,8,10,15(20)-heptaen-10-yl]propylidene]hydrazinecarbonyl}methoxy)ethoxy]ethoxy}acetamido)methyl]phenyl}methyl)-3,6,9,12,15-pentaoxo-1,4,7,10,13-pentaazacyclopentadecan-2-yl]acetic acid] | 11
CC[C@@]1(O)C(=O)OCc2c1cc1n(c2=O)Cc2c-1nc1ccccc1c2C=NNC(=O)COCCOCCOCC(=O)NCc1ccc(C[C@@H]2NC(=O)[C@@H](Cc3ccccc3)NC(=O)[C@H](CC(=O)O)NC(=O)CNC(=O)[C@H](CCCN=C(N)N)NC2=O)cc1 [2-[(2S,5R,8S,11S)-5-benzyl-11-(3-carbamimidamidopropyl)-8-({4-[(2-{2-[2-({N'-[(1E)-[(19S)-19-ethyl-19-hydroxy-14,18-dioxo-17-oxa-3,13-diazapentacyclo[11.8.0.0^{2,11}.0^{4,9}.0^{15,20}]henicosa-1(21),2,4,6,8,10,15(20)-heptaen-10-yl]methylidene]hydrazinecarbonyl}methoxy)ethoxy]ethoxy}acetamido)methyl]phenyl}methyl)-3,6,9,12,15-pentaoxo-1,4,7,10,13-pentaazacyclopentadecan-2-yl]acetic acid] | 4.8
CC[C@@]1(O)C(=O)OCc2c1cc1n(c2=O)Cc2c-1nc1ccccc1c2/C=N\OCCNC(=O)CCC[C@@H]1NC(=O)[C@@H](Cc2ccccc2)NC(=O)[C@H](CC(=O)O)NC(=O)CNC(=O)[C@H](CCCN=C(N)N)NC1=O [2-[(2S,5R,8S,11S)-5-benzyl-11-(3-carbamimidamidopropyl)-8-{3-[(2-{[(Z)-{[(19S)-19-ethyl-19-hydroxy-14,18-dioxo-17-oxa-3,13-diazapentacyclo[11.8.0.0^{2,11}.0^{4,9}.0^{15,20}]henicosa-1(21),2,4,6,8,10,15(20)-heptaen-10-yl]methylidene}amino]oxy}ethyl)carbamoyl]propyl}-3,6,9,12,15-pentaoxo-1,4,7,10,13-pentaazacyclopentadecan-2-yl]acetic acid] | 5.8
CC[C@@]1(O)C(=O)OCc2c1cc1n(c2=O)Cc2c-1nc1ccccc1c2/C=N/OCCNC(=O)COCCOCCOCC(=O)NCc1ccc(C[C@@H]2NC(=O)[C@@H](Cc3ccccc3)NC(=O)[C@H](CC(=O)O)NC(=O)CNC(=O)[C@H](CCCN=C(N)N)NC2=O)cc1 [2-[(2S,5R,8S,11S)-5-benzyl-11-(3-carbamimidamidopropyl)-8-{[4-({2-[2-(2-{[(2-{[(E)-{[(19S)-19-ethyl-19-hydroxy-14,18-dioxo-17-oxa-3,13-diazapentacyclo[11.8.0.0^{2,11}.0^{4,9}.0^{15,20}]henicosa-1(21),2,4,6,8,10,15(20)-heptaen-10-yl]methylidene}amino]oxy}ethyl)carbamoyl]methoxy}ethoxy)ethoxy]acetamido}methyl)phenyl]methyl}-3,6,9,12,15-pentaoxo-1,4,7,10,13-pentaazacyclopentadecan-2-yl]acetic acid] | 8.3
CC[C@@]1(O)C(=O)OCc2c1cc1n(c2=O)Cc2c-1nc1ccccc1c2/C=N/OCCNC(=O)CCC(=O)NCc1ccc(C[C@@H]2NC(=O)[C@@H](Cc3ccccc3)NC(=O)[C@H](CC(=O)O)NC(=O)CNC(=O)[C@H](CCCN=C(N)N)NC2=O)cc1 [2-[(2S,5R,8S,11S)-5-benzyl-11-(3-carbamimidamidopropyl)-8-{[4-({3-[(2-{[(E)-{[(19S)-19-ethyl-19-hydroxy-14,18-dioxo-17-oxa-3,13-diazapentacyclo[11.8.0.0^{2,11}.0^{4,9}.0^{15,20}]henicosa-1(21),2,4,6,8,10,15(20)-heptaen-10-yl]methylidene}amino]oxy}ethyl)carbamoyl]propanamido}methyl)phenyl]methyl}-3,6,9,12,15-pentaoxo-1,4,7,10,13-pentaazacyclopentadecan-2-yl]acetic acid] | > 100
